Assay type in all cases: physicochemical
The nature of data set [1]: Comparable solubility in phosphate buffer / physiologically relevant medium. As to conditions: for solubility at 0.5 h: read-out: C30 min; for solubility at 1 h: read-out: C60 min. Here is the method: In order to prepare a pharmaceutical composition physical properties were measured.
(§1) Physiologically relevant medium is a phosphate buffer at pH=6.76 + Sodiumtauroholat (2,5 mM) + Lecitin (0,5 mM). Surface area of Form 1 was 2.15 - 2,68 m^2/g whereas the surface area of Form 5 was 7,66 m^2/g (BET - isotherm), the hygroscopity as established by DVS - first cycle at 90 % humidity was 0,23% for Form I and 0,44% for Form 5.

Data set [2] in a line: Surface area (BET isotherm). As to the method:
as §1

Data set [3] can be described thus: Hygroscopicity by DVS. As to conditions: DVS - first cycle at 90 % humidity. Here is the method: as §1

SMILES strings stand for the structures. Like-named read-outs stand apart in the source and are kept apart here. Bounds are passed on as bounds.

Here are results for two compounds from patent EP1655298A1, “Novel polymorph forms of candesartan cilexetil” (priority 2004, dated 2006).

`CCOc1nc2cccc(C(=O)OC(C)OC(=O)OC3CCCCC3)c2n1Cc1ccc(-c2ccccc2-c2nnn[nH]2)cc1` (stereo not drawn) [Form 5, candesartan cilexetil] had a C30 min in data set [1] (Phosphate buffer pH=6.76, 30 min) below 0.2 µg/mL. Also, the C60 min in data set [1] (Phosphate buffer pH=6.76, 60 min) was below 0.2 µg/mL. In addition, the solubility at 0.5 h in data set [1] (phosphate buffer + taurocholate + lecithin, Physiologically relevant medium: phosphate buffer pH=6.76 + Sodiumtauroholat (2,5 mM) + Lecitin (0,5 mM), 30 min) was determined as 37.1 µg/mL. Besides, the solubility at 1 h in data set [1] (phosphate buffer + taurocholate + lecithin, Physiologically relevant medium: phosphate buffer pH=6.76 + Sodiumtauroholat (2,5 mM) + Lecitin (0,5 mM), 60 min) stood at 68.5 µg/mL. Besides, in data set [2], the Surface area was 7,66 m^2/g. For the same compound, the hygroscopity in data set [3] is given as 0,44%.

In the case of `CCOc1nc2cccc(C(=O)OC(C)OC(=O)OC3CCCCC3)c2n1Cc1ccc(-c2ccccc2-c2nnn[nH]2)cc1` (stereo not drawn) [Form 1, candesartan cilexetil], the solubility at 0.5 h in data set [1] (aqueous buffer, Phosphate buffer pH=6.76, 30 min) was below 0.2 µg/mL. In data set [1] (aqueous buffer, Phosphate buffer pH=6.76, 60 min), the solubility at 1 h was below 0.2 µg/mL. Besides, the hygroscopity in data set [3] (listed as Form I) is given as 0,23%.
